Key:
[1] = target: Phospholipase A2 group IB (Sus scrofa); experiment: In vitro activity against porcine pancreatic phospholipase-A2 (PLA2) and micellar substrate with deoxycholate (DOC)
[2] = target: Phospholipase A2 group IB (pancreatic, Sus scrofa); experiment: In vitro activity against porcine pancreatic phospholipase-A2 (PLA2) and monomerically dispersed substrate

Row | Structure (SMILES) | IC50 [1] [nM] | IC50 [2] [nM]
1 | CCCCCC/C=C/CC(=O)N[C@@H](CC(=O)O)CC(C)C [(R)-3-((S)-(E)-Dec-3-enoylamino)-5-methyl-hexanoic acid] | 8500 | 300
2 | CCCCCCCCCC(=O)N[C@@H](CC(=O)O)CC(C)C [(R)-3-((S)-Decanoylamino)-5-methyl-hexanoic acid] | 15000 | 1400
3 | CCCCCCCCCCCCCCCC(=O)N[C@@H](CC(=O)O)CC(C)C [(R)-3-((S)-Hexadecanoylamino)-5-methyl-hexanoic acid] | 7300 | 190
4 | CCCCCC/C=C/CC(=O)N[C@H](CSc1ccc2ccccc2c1)CC(=O)O [(S)-3-((S)-(E)-Dec-3-enoylamino)-4-(naphthalen-2-ylsulfanyl)-butyric acid] | 790 | 23
5 | CCCCCC/C=C/CC(=O)N[C@H](CSc1ccccc1)CC(=O)O [(S)-3-((S)-(E)-Dec-3-enoylamino)-4-phenylsulfanyl-butyric acid] | 2200 | 95
6 | CCCCCCCCCCCCCCCC(=O)N[C@@H](CCC(=O)O)CC(C)C [(S)-4-((S)-Hexadecanoylamino)-6-methyl-heptanoic acid] | 4500 | 200
7 | CCCCCCCCCCCCCCCC(=O)N[C@@H](CCCC(=O)O)CC(C)C [(S)-5-((S)-Hexadecanoylamino)-7-methyl-octanoic acid] | 19000 | 1300
